The test system of assay [1] is barnyardgrass. The experiment in a line: Test A preemergence. It counts as in vivo, Echinochloa crusgalli. As to conditions: 1000 g ai/ha, 0 to 100 scale (0 no effect, 100 complete control), 10 days. In short, it runs like this: (§1)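 Visual injury ratings on a 0–100 scale (100 = complete control) versus untreated controls, taken 10 days after treatment in greenhouse. Preemergence: directed soil spray onto seeded loam/sand. Postemergence: foliar application at one- to two-leaf stage, plants 2–10 cm. Formulation: non-phytotoxic solvent plus surfactant.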

In the next assay the test system is foxtail, giant. The experiment in a line: Test A preemergence. It counts as in vivo, Setaria faberi. The note with it: 1000 g ai/ha, 0 to 100 scale (0 no effect, 100 complete control), 10 days. In short, it runs like this:
as §1

In the next assay the test system is kochia. The experiment in a line: Test A preemergence. It counts as in vivo, Bassia scoparia. The note with it: 1000 g ai/ha, 0 to 100 scale (0 no effect, 100 complete control), 10 days. An outline of the steps: as §1
The next assay has as its system Pigweed, Redroot. The experiment in a line: Test A preemergence. It counts as in vivo, Amaranthus retroflexus. As to conditions: 1000 g ai/ha, 0 to 100 scale (0 no effect, 100 complete control), 10 days. The source says: Seeds of plant species selected from barnyardgrass (Echinochloa crusgalli), blackgrass (Alopecurus myosuroides), corn (Zea mays), foxtail, giant (giant foxtail, Setaria faberi), goosegrass (Eleusine indica), kochia (Bassia scoparia), oat, wild (wild oat, Avena fatua), pigweed, palmer (palmer amaranth, palmer pigweed, Amaranthus palmeri), Pigweed, Redroot (redroot pigweed, Amaranthus retroflexus), ragweed (common ragweed, Ambrosia artemisiifolia), ryegrass, Italian (italian ryegrass, Lolium multiflorum), soybean (Glycine max), and wheat (Triticum aestivum) were planted into a blend of loam soil and sand and treated preemergence with a directed soil spray using test chemicals formulated in a non-phytotoxic solvent mixture which included a surfactant. At the same time, plants selected from these crops and weed species and also galium (catchweed bedstraw, Galium aparine) and horseweed (Erigeron canadensis) were planted in pots containing the same blend of loam soil and sand and treated with postemergence applications of test chemicals formulated in the same manner. Plants ranged in height from 2 to 10 cm and were in the one- to two-leaf stage for the postemergence treatment. Treated plants and untreated controls were maintained in a greenhouse for 10 days, after which time all treated plants were compared to untreated controls and visually evaluated for injury. Plant response ratings, summarized in Table A, are based on a 0 to 100 scale where 0 is no effect and 100 is complete control. A dash (-) response means no test result.

The test system of a further assay is ragweed. The experiment in a line: Test A preemergence. As to conditions: 1000 g ai/ha, 0 to 100 scale (0 no effect, 100 complete control), 10 days. It counts as in vivo, Ambrosia artemisiifolia. In short, it runs like this:
as §1

A further assay concerns ryegrass, Italian. As to the kind of experiment: Test A preemergence. The note with it: 1000 g ai/ha, 0 to 100 scale (0 no effect, 100 complete control), 10 days. It counts as in vivo, Lolium multiflorum. In short, it runs like this: as §1
Assay [2] deals with barnyardgrass. The experiment in a line: Test B flooded paddy test. It counts as in vivo, Echinochloa crus-galli. The note with it: 250 g ai/ha, Flood, 13 days, 0 to 100 scale (0 no effect, 100 complete control). In short, it runs like this: (§2)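 2-leaf stage; pots flooded 3 cm over soil; compound dosed into paddy water; depth kept constant. Greenhouse, 13 d. Visual rating vs controls, 0 (no effect)–100 (complete control). Dash = no result.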

In a further assay the test system is ducksalad. The experiment in a line: Test B flooded paddy test. As to conditions: 250 g ai/ha, Flood, 13 days, 0 to 100 scale (0 no effect, 100 complete control). It counts as in vivo, Heteranthera limosa. In short, it runs like this:
as §2

The next assay concerns rice. As to the kind of experiment: Test B flooded paddy test. It counts as in vivo, Oryza sativa. The note with it: 250 g ai/ha, Flood, 13 days, 0 to 100 scale (0 no effect, 100 complete control). An outline of the steps: as §2
A further assay has as its system sedge, umbrella. As to the kind of experiment: Test B flooded paddy test. It counts as in vivo, Cyperus difformis. The note with it: 250 g ai/ha, Flood, 13 days, 0 to 100 scale (0 no effect, 100 complete control). In short, it runs like this: as §2

Experimental findings from patent publication US20260262643A1, “HERBICIDAL BENZOXAZINES” (FMC CORPORATION, priority 2022, published 2026) are described below.

Turning to `CC(C)C1CN(C(=O)c2ccnc(-n3cncn3)c2)c2cccc(Cl)c2O1` (stereo not drawn) [Compound 3], the “Plant response rating, Barnyardgrass” value in the assay on barnyardgrass [1] stood at 0. Moreover, the “Plant response rating, Foxtail, Giant” value with foxtail, giant is reported as 0. The “Plant response rating, Kochia” value in the assay with kochia amounted to 0. Also, in the assay on Pigweed, Redroot, the “Plant response rating, Pigweed, Redroot” value is 0. Moreover, the “Plant response rating, Ragweed” value in the assay with ragweed is given as 0. Moreover, the “Plant response rating, Ryegrass, Italian” value in the assay with ryegrass, Italian is 0.
With `CCC1CN(C(=O)c2ccnc(-n3cncn3)c2)c2cccc(Br)c2O1` (stereo not drawn) [Compound 13], the “Plant response rating, Barnyardgrass” value in the assay on barnyardgrass [1] is 0. Also, the “Plant response rating, Foxtail, Giant” value in the assay with foxtail, giant was 90. For the same compound, the “Plant response rating, Kochia” value with kochia is 60. Besides, in the assay on Pigweed, Redroot, the “Plant response rating, Pigweed, Redroot” value is listed as 50. In the assay with ragweed, the “Plant response rating, Ragweed” value stood at 0. Also, the “Plant response rating, Ryegrass, Italian” value in the assay on ryegrass, Italian amounted to 30.
Take `CCCC1CN(C(=O)c2ccnc(-n3cncn3)c2)c2cccc(Cl)c2O1` (stereo not drawn) [Compound 2]: the “Plant response rating, Barnyardgrass” value in the assay with barnyardgrass [1] was 60. Besides, the “Plant response rating, Foxtail, Giant” value with foxtail, giant stood at 100. Also, in the assay with kochia, the “Plant response rating, Kochia” value was 0. For the same compound, the “Plant response rating, Pigweed, Redroot” value with Pigweed, Redroot came out at 20. Moreover, the “Plant response rating, Ragweed” value with ragweed was found to be 0. The “Plant response rating, Ryegrass, Italian” value in the assay on ryegrass, Italian turned out to be 60.
For `CC1CN(C(=O)c2ccnc(-n3cncn3)c2)c2ccccc2O1` (stereo not drawn) [Compounds 8], the “Plant response rating, Barnyardgrass” value in the assay on barnyardgrass [1] stood at 0. Moreover, in the assay on foxtail, giant, the “Plant response rating, Foxtail, Giant” value stood at 90. The “Plant response rating, Kochia” value with kochia worked out at 50. For the same compound, the “Plant response rating, Pigweed, Redroot” value in the assay with Pigweed, Redroot came out at 10. Besides, the “Plant response rating, Ragweed” value in the assay with ragweed was 0. Also, the “Plant response rating, Ryegrass, Italian” value in the assay on ryegrass, Italian came out at 40.
In the case of `CCC1CN(C(=O)c2ccnc(-n3cncn3)c2)c2c(Cl)cccc2O1` (stereo not drawn) [Compound 14], the “Plant response rating, Barnyardgrass” value in the assay on barnyardgrass [1] was 0. For the same compound, the “Plant response rating, Foxtail, Giant” value in the assay on foxtail, giant amounted to 30. In the assay on kochia, the “Plant response rating, Kochia” value was found to be 30. Further, the “Plant response rating, Pigweed, Redroot” value in the assay on Pigweed, Redroot is 10. The “Plant response rating, Ragweed” value in the assay with ragweed was 0. Moreover, the “Plant response rating, Ryegrass, Italian” value in the assay with ryegrass, Italian amounted to 20.
Regarding `CCC1CN(C(=O)c2ccnc(-n3cncn3)c2)c2cc(Cl)ccc2O1` (stereo not drawn) [Compound 12], the “Plant response rating, Barnyardgrass” value in the assay with barnyardgrass [1] is recorded as 0. Besides, the “Plant response rating, Foxtail, Giant” value in the assay with foxtail, giant was 20. Besides, in the assay with kochia, the “Plant response rating, Kochia” value is 0. Further, in the assay with Pigweed, Redroot, the “Plant response rating, Pigweed, Redroot” value is recorded as 0. In the assay with ragweed, the “Plant response rating, Ragweed” value is 0. For the same compound, the “Plant response rating, Ryegrass, Italian” value with ryegrass, Italian is 0.
As to `CC1CN(C(=O)c2ccnc(-n3cncn3)c2)c2cccc(Cl)c2O1` (stereo not drawn) [Compound 9], the “Plant response rating, Barnyardgrass” value with barnyardgrass [1] is listed as 0. The “Plant response rating, Foxtail, Giant” value with foxtail, giant is on record as 0. The “Plant response rating, Kochia” value in the assay on kochia turned out to be 0. Besides, the “Plant response rating, Pigweed, Redroot” value in the assay with Pigweed, Redroot worked out at 0. Further, in the assay on ragweed, the “Plant response rating, Ragweed” value stood at 0. Besides, the “Plant response rating, Ryegrass, Italian” value in the assay on ryegrass, Italian is 0.
As to `CCC1CN(C(=O)c2ccnc(-n3cncn3)c2)c2ccc(Cl)cc2O1` (stereo not drawn) [Compound 16], the “Plant response rating, Barnyardgrass” value in the assay on barnyardgrass [1] was found to be 0. Moreover, the “Plant response rating, Foxtail, Giant” value in the assay on foxtail, giant was 0. Further, the “Plant response rating, Kochia” value in the assay with kochia is reported as 20. Moreover, the “Plant response rating, Pigweed, Redroot” value with Pigweed, Redroot worked out at 20. Further, in the assay with ragweed, the “Plant response rating, Ragweed” value stood at 0. In addition, the “Plant response rating, Ryegrass, Italian” value with ryegrass, Italian is 0.
In the case of `CCC1CN(C(=O)c2ccnc(-n3cncn3)c2)c2cccc(Cl)c2O1` (single isomer, unassigned) [Compound 5], the “Plant response rating, Barnyardgrass” value is given as 70 in the assay with barnyardgrass [1] and 25 in the assay on barnyardgrass [2]. For the same compound, the “Plant response rating, Foxtail, Giant” value with foxtail, giant stood at 100. Also, the “Plant response rating, Kochia” value in the assay on kochia stood at 30. Further, the “Plant response rating, Pigweed, Redroot” value in the assay with Pigweed, Redroot is on record as 80. In addition, in the assay on ragweed, the “Plant response rating, Ragweed” value was determined as 0. In the assay on ryegrass, Italian, the “Plant response rating, Ryegrass, Italian” value came out at 80. Moreover, in the assay on ducksalad, the “Plant response rating, Ducksalad” value is recorded as 35. For the same compound, the “Plant response rating, Rice” value in the assay on rice worked out at 0. The “Plant response rating, Sedge, Umbrella” value with sedge, umbrella was determined as 0.
In the case of `CCC1CN(C(=O)c2ccnc(-n3cncn3)c2)c2cccc(F)c2O1` (stereo not drawn) [Compound 15], the “Plant response rating, Barnyardgrass” value with barnyardgrass [1] stood at 60. The “Plant response rating, Foxtail, Giant” value with foxtail, giant stood at 100. Further, the “Plant response rating, Kochia” value in the assay with kochia stood at 60. In addition, in the assay on Pigweed, Redroot, the “Plant response rating, Pigweed, Redroot” value stood at 90. Moreover, the “Plant response rating, Ragweed” value in the assay with ragweed amounted to 0. Moreover, in the assay with ryegrass, Italian, the “Plant response rating, Ryegrass, Italian” value is 60.
Consider `CCC1CN(C(=O)c2ccnc(-n3cncn3)c2)c2cccc(Cl)c2O1` (single isomer, unassigned) [Compound 4], for which the “Plant response rating, Barnyardgrass” value with barnyardgrass [1] is 0. Further, in the assay with foxtail, giant, the “Plant response rating, Foxtail, Giant” value is listed as 0. Moreover, in the assay on kochia, the “Plant response rating, Kochia” value turned out to be 0. Further, in the assay with Pigweed, Redroot, the “Plant response rating, Pigweed, Redroot” value is reported as 0. The “Plant response rating, Ragweed” value in the assay on ragweed stood at 0. Besides, in the assay on ryegrass, Italian, the “Plant response rating, Ryegrass, Italian” value is reported as 0.
With `CC1CN(C(=O)c2ccnc(-n3cncn3)c2)c2cccc(Cl)c2O1` (stereo not drawn) [Compound 1], the “Plant response rating, Barnyardgrass” value with barnyardgrass [1] amounted to 80; in the assay with barnyardgrass [2] it was 0. Also, the “Plant response rating, Foxtail, Giant” value in the assay on foxtail, giant came out at 100. In the assay on kochia, the “Plant response rating, Kochia” value is 40. Further, the “Plant response rating, Pigweed, Redroot” value in the assay on Pigweed, Redroot came out at 40. In addition, in the assay on ragweed, the “Plant response rating, Ragweed” value worked out at 80. Also, the “Plant response rating, Ryegrass, Italian” value with ryegrass, Italian was found to be 90. Moreover, the “Plant response rating, Ducksalad” value in the assay on ducksalad came to 0. The “Plant response rating, Rice” value in the assay with rice turned out to be 0. Besides, the “Plant response rating, Sedge, Umbrella” value in the assay on sedge, umbrella is 0.
In the case of `CC1CN(C(=O)c2ccnc(-n3cncn3)c2)c2cccc(Cl)c2O1` (stereo not drawn) [Compound 10], the “Plant response rating, Barnyardgrass” value with barnyardgrass [1] came to 90; with barnyardgrass [2], 0. Further, the “Plant response rating, Foxtail, Giant” value with foxtail, giant came out at 100. The “Plant response rating, Kochia” value in the assay on kochia was 30. Further, the “Plant response rating, Pigweed, Redroot” value with Pigweed, Redroot stood at 40. The “Plant response rating, Ragweed” value in the assay on ragweed was found to be 80. Besides, the “Plant response rating, Ryegrass, Italian” value in the assay with ryegrass, Italian is 80. Further, the “Plant response rating, Ducksalad” value in the assay on ducksalad is 0. In the assay with rice, the “Plant response rating, Rice” value is reported as 0. In the assay with sedge, umbrella, the “Plant response rating, Sedge, Umbrella” value was 0.
